Measured values published in patent publication US9902736B2, “1-oxo/acylation-14-acylated oridonin derivative, preparation method therefor and application thereof” (HANGZHOU BENSHENG PHARMACEUTICAL CO., LTD., priority 2012, dated 2018).
Values after ≈ are worked out from the molar mass of the structure shown.

What was measured:
RPMI 8226 = experiment: Multiple myeloma cell growth inhibition, MTT, 72 h; format: cell-based; details: Homo sapiens
Experimental: Multiple myeloma cell lines: RPMI8226 (multiple myeloma), purchased from Fuxiang Bio-tech Co. Ltd., Shanghai, China.
(§1) 6000 well-growing cells were obtained and inoculated into wells of a 96-well cell culture plate. […] On the next day, the 1-oxo/acylated-14-acylated oridonin derivatives of different concentrations were added and mixed uniformly. The plate was placed in a carbon dioxide cell incubator (5% CO2) at 37° C. and incubated for 72 hours. Then the viable cell concentration was determined by MTT method.

Kasumi-1 = experiment: Leukemia cell growth inhibition, MTT, 72 h; format: cell-based; details: Homo sapiens
From the text: (§2) Leukemia cell lines: leukemia cell lines: K562/adr (drug-resistant, chronic myeloid leukemia, CML), NB4 (acute promyelocytic leukemia, AML), Kasumi-1 (acute myeloid leukemia M2 type, AML-M2), Jurkat (acute lymphoblastic leukemia, ALL), all of which were donated by Cancer Research Institute of Zhejiang University, China; and H9 (acute lymphoblastic leukemia, ALL), which was purchased from China Center for Type Culture Collection.
as §1, with “6000 well-growing leukemia cells were” for “6000 well-growing cells were”, “C. and was incubated for” for “C. and incubated for”

K562/ADR = experiment: Leukemia cell growth inhibition, MTT, 72 h; format: cell-based; details: Homo sapiens
From the text: as §2
as §1, with “6000 well-growing leukemia cells were” for “6000 well-growing cells were”, “C. and was incubated for” for “C. and incubated for”

Becap-37 = experiment: Solid tumor cell growth inhibition, MTT, 72 h; format: cell-based; details: Homo sapiens
Experimental: (§3) 6000 well-growing human solid tumor cells were obtained and inoculated into wells of a 96-well cell culture plate. The culture medium was DMEM High Glucose cell culture medium containing 10% fetal bovine serum. The plate was placed in a carbon dioxide cell incubator (5% CO2) at 37° C. and incubated for 24 hours. After added with 1-oxo/acylated-14-acylated oridonin derivatives of different concentration and mixed uniformly, the plate was placed in a carbon dioxide cell incubator (5% CO2) at 37° C. and incubated for 72 hours. Then the viable cell concentration was determined by MTT method.

A549 = experiment: Solid tumor cell growth inhibition, MTT, 72 h; format: cell-based; details: Homo sapiens
Experimental: as §3

PC-3 = experiment: Solid tumor cell growth inhibition, MTT, 72 h; format: cell-based; details: Homo sapiens
Experimental: as §3

RKO = experiment: Solid tumor cell growth inhibition, MTT, 72 h; format: cell-based; details: Homo sapiens
Experimental: as §3

Hep G2 = experiment: Solid tumor cell growth inhibition, MTT, 72 h; format: cell-based; details: Homo sapiens, HepG2
Experimental: as §3

SK-OV-3 = experiment: Solid tumor cell growth inhibition, MTT, 72 h; format: cell-based; details: Homo sapiens, SK-OV-3, 72 h, MTT; for IC50: read-out: IC50 SK-OV-3; for IC90: read-out: IC90 SK-OV-3
Experimental: as §3

MG-63 = experiment: Solid tumor cell growth inhibition, MTT, 72 h; format: cell-based; details: Homo sapiens
Experimental: as §3

PANC-1 = experiment: Solid tumor cell growth inhibition, MTT, 72 h; format: cell-based; details: Homo sapiens
Experimental: as §3

CaEs-17 = experiment: Solid tumor cell growth inhibition, MTT, 72 h; format: cell-based; details: Homo sapiens, CaEs17
Experimental: as §3

U87-MG = experiment: Solid tumor cell growth inhibition, MTT, 72 h; format: cell-based; details: Homo sapiens, U-87 MG
Experimental: as §3

Jurkat = experiment: Leukemia cell growth inhibition, MTT, 72 h; format: cell-based, human; details: Homo sapiens, Jurkat; 72 h, MTT
From the text: as §2
as §1, with “6000 well-growing leukemia cells were” for “6000 well-growing cells were”, “C. and was incubated for” for “C. and incubated for”

H9 = experiment: Leukemia cell growth inhibition, MTT, 72 h; format: cell-based, human; details: Homo sapiens, H9; 72 h, MTT
From the text: as §2
as §1, with “6000 well-growing leukemia cells were” for “6000 well-growing cells were”, “C. and was incubated for” for “C. and incubated for”

NB4 = experiment: Leukemia cell growth inhibition, MTT, 72 h; format: cell-based, human; details: Homo sapiens, NB-4; 72 h, MTT
From the text: as §2
as §1, with “6000 well-growing leukemia cells were” for “6000 well-growing cells were”, “C. and was incubated for” for “C. and incubated for”

Hep-2 = experiment: Solid tumor cell growth inhibition, MTT, 72 h; format: cell-based, human; details: Homo sapiens, HEp-2; 72 h, MTT
Experimental: as §3

MGC-803 = experiment: Solid tumor cell growth inhibition, MTT, 72 h; format: cell-based, human; details: Homo sapiens, MGC-803; 72 h, MTT
Experimental: as §3

Hela = experiment: Solid tumor cell growth inhibition, MTT, 72 h; format: cell-based, human; details: Homo sapiens, HeLa; 72 h, MTT
Experimental: as §3

CNE = experiment: Solid tumor cell growth inhibition, MTT, 72 h; format: cell-based, human; details: Homo sapiens, CNE; 72 h, MTT
Experimental: as §3

Row | IC50 (RPMI 8226) | IC90 (RPMI 8226) | IC50 (Kasumi-1) | IC90 (Kasumi-1) | IC50 (K562/ADR) | IC90 (K562/ADR) | IC50 (Becap-37) | IC90 (Becap-37) | IC50 (A549) | IC90 (A549) | IC50 (PC-3) | IC90 (PC-3) | IC50 (RKO) | IC90 (RKO) | IC50 (Hep G2) | IC90 (Hep G2) | IC50 (SK-OV-3) | IC90 (SK-OV-3) | IC50 (MG-63) | IC90 (MG-63) | other results | Structure (SMILES)
1 | 1.34 µg/mL (≈ 2.18 µM) | 2.95 µg/mL (≈ 4.81 µM) | 1.5 µg/mL (≈ 2.44 µM) | 2.92 µg/mL (≈ 4.76 µM) | 1.09 µg/mL (≈ 1.78 µM) | 2.97 µg/mL (≈ 4.84 µM) | 2.93 µg/mL (≈ 4.77 µM) | 10.5 µg/mL (≈ 17.1 µM) | 5.68 µg/mL (≈ 9.25 µM) | 9.98 µg/mL (≈ 16.3 µM) | 3.07 µg/mL (≈ 5 µM) | 5.41 µg/mL (≈ 8.81 µM) | 0.89 µg/mL (≈ 1.45 µM) | 1.99 µg/mL (≈ 3.24 µM) | 3.17 µg/mL (≈ 5.17 µM) | ≥ 17.2 µg/mL | 3.07 µg/mL (≈ 5 µM) | 5.41 µg/mL (≈ 8.81 µM) | 0.98 µg/mL (≈ 1.6 µM) | 1.97 µg/mL (≈ 3.21 µM) | IC50 (PANC-1): 3.61 µg/mL (≈ 5.88 µM); IC90 (PANC-1): 7.88 µg/mL (≈ 12.8 µM); IC50 (CaEs-17): 1.62 µg/mL (≈ 2.64 µM); IC90 (CaEs-17): 11.7 µg/mL (≈ 19.1 µM); IC50 (U87-MG): 1.26 µg/mL (≈ 2.05 µM); IC90 (U87-MG): 4.56 µg/mL (≈ 7.43 µM); IC50 (Jurkat): 0.93 µg/mL (≈ 1.52 µM); IC90 (Jurkat): 6.15 µg/mL (≈ 10 µM); IC50 (H9): 6.71 µg/mL (≈ 10.9 µM); IC90 (H9): 12.7 µg/mL (≈ 20.7 µM); IC50 (NB4): 4.09 µg/mL (≈ 6.66 µM); IC90 (NB4): 9.77 µg/mL (≈ 15.9 µM); IC50 (Hep-2): > 16 µg/mL; IC90 (Hep-2): > 16 µg/mL; IC50 (MGC-803): 12.7 µg/mL (≈ 20.7 µM); IC90 (MGC-803): > 16 µg/mL; IC50 (Hela): 2.63 µg/mL (≈ 4.29 µM); IC90 (Hela): 5.67 µg/mL (≈ 9.24 µM); IC50 (CNE): > 16 µg/mL; IC90 (CNE): > 16 µg/mL | C=C1C(=O)[C@]23[C@H](OC(=O)C4CCN(S(=O)(=O)c5ccccc5)CC4)[C@H]1CC[C@H]2[C@@]12CO[C@@]3(O)[C@@H](O)[C@@H]1C(C)(C)CCC2=O [BS-OR-032]
2 | 2.73 µg/mL (≈ 7.49 µM) | 5.68 µg/mL (≈ 15.6 µM) | 1.32 µg/mL (≈ 3.62 µM) | 3.72 µg/mL (≈ 10.2 µM) | 1.32 µg/mL (≈ 3.62 µM) | 3.46 µg/mL (≈ 9.49 µM) | 5.06 µg/mL (≈ 13.9 µM) | 12.9 µg/mL (≈ 35.5 µM) | 13.7 µg/mL (≈ 37.6 µM) | > 16 µg/mL | 7.94 µg/mL (≈ 21.8 µM) | 13 µg/mL (≈ 35.6 µM) | 2.24 µg/mL (≈ 6.15 µM) | 3.96 µg/mL (≈ 10.9 µM) | 6.77 µg/mL (≈ 18.6 µM) | 13.1 µg/mL (≈ 36 µM) | 7.94 µg/mL (≈ 21.8 µM) | 13 µg/mL (≈ 35.6 µM) | 1.86 µg/mL (≈ 5.1 µM) | 5.6 µg/mL (≈ 15.4 µM) | IC50 (PANC-1): 9.1 µg/mL (≈ 25 µM); IC90 (PANC-1): 16 µg/mL (≈ 43.9 µM); IC50 (CaEs-17): 3.31 µg/mL (≈ 9.08 µM); IC90 (CaEs-17): 6.86 µg/mL (≈ 18.8 µM); IC50 (U87-MG): 2.58 µg/mL (≈ 7.08 µM); IC90 (U87-MG): 6.67 µg/mL (≈ 18.3 µM); IC50 (Jurkat): 1.89 µg/mL (≈ 5.19 µM); IC90 (Jurkat): 3.95 µg/mL (≈ 10.8 µM); IC50 (H9): 1.36 µg/mL (≈ 3.73 µM); IC90 (H9): 3.57 µg/mL (≈ 9.8 µM); IC50 (NB4): 0.78 µg/mL (≈ 2.14 µM); IC90 (NB4): 2.4 µg/mL (≈ 6.59 µM); IC50 (Hep-2): 4.66 µg/mL (≈ 12.8 µM); IC90 (Hep-2): 7.99 µg/mL (≈ 21.9 µM); IC50 (MGC-803): 5.88 µg/mL (≈ 16.1 µM); IC90 (MGC-803): 7.95 µg/mL (≈ 21.8 µM); IC50 (Hela): 5.22 µg/mL (≈ 14.3 µM); IC90 (Hela): 10.7 µg/mL (≈ 29.4 µM); IC50 (CNE): 5.45 µg/mL (≈ 15 µM); IC90 (CNE): 10.5 µg/mL (≈ 28.9 µM) | C=C1C(=O)[C@]23[C@H](O)[C@H]1CC[C@H]2[C@@]12CO[C@]3(O)[C@@H](O)[C@@H]1C(C)(C)CC[C@@H]2O [OR, Oridonin]
3 | 0.97 µg/mL (≈ 1.71 µM) | 3.58 µg/mL (≈ 6.33 µM) | 1.1 µg/mL (≈ 1.94 µM) | 3.95 µg/mL (≈ 6.98 µM) | 1.43 µg/mL (≈ 2.53 µM) | 3.92 µg/mL (≈ 6.93 µM) | 3.04 µg/mL (≈ 5.37 µM) | 7.59 µg/mL (≈ 13.4 µM) | 6.1 µg/mL (≈ 10.8 µM) | 10.2 µg/mL (≈ 18 µM) | 5.3 µg/mL (≈ 9.37 µM) | 11.6 µg/mL (≈ 20.5 µM) | 1.01 µg/mL (≈ 1.79 µM) | 1.93 µg/mL (≈ 3.41 µM) | 3.37 µg/mL (≈ 5.96 µM) | 13.2 µg/mL (≈ 23.3 µM) | 5.3 µg/mL (≈ 9.37 µM) | 11.6 µg/mL (≈ 20.5 µM) | 0.95 µg/mL (≈ 1.68 µM) | 4.89 µg/mL (≈ 8.64 µM) | IC50 (PANC-1): 4.7 µg/mL (≈ 8.31 µM); IC90 (PANC-1): 11.4 µg/mL (≈ 20.1 µM); IC50 (CaEs-17): 2.18 µg/mL (≈ 3.85 µM); IC90 (CaEs-17): 7.64 µg/mL (≈ 13.5 µM); IC50 (U87-MG): 1.98 µg/mL (≈ 3.5 µM); IC90 (U87-MG): 6.78 µg/mL (≈ 12 µM); IC50 (Jurkat): 1.36 µg/mL (≈ 2.4 µM); IC90 (Jurkat): 5.91 µg/mL (≈ 10.4 µM); IC50 (H9): 1.42 µg/mL (≈ 2.51 µM); IC90 (H9): 3.01 µg/mL (≈ 5.32 µM); IC50 (NB4): 0.44 µg/mL (≈ 0.778 µM); IC90 (NB4): 2.63 µg/mL (≈ 4.65 µM); IC50 (Hep-2): 4.34 µg/mL (≈ 7.67 µM); IC90 (Hep-2): 13.9 µg/mL (≈ 24.6 µM); IC50 (MGC-803): 3.36 µg/mL (≈ 5.94 µM); IC90 (MGC-803): 9.55 µg/mL (≈ 16.9 µM); IC50 (Hela): 3.01 µg/mL (≈ 5.32 µM); IC90 (Hela): 6.16 µg/mL (≈ 10.9 µM); IC50 (CNE): 3.29 µg/mL (≈ 5.82 µM); IC90 (CNE): 10.9 µg/mL (≈ 19.2 µM) | C=C1C(=O)[C@]23[C@H](OC(=O)C4CCN(S(=O)(=O)CC)CC4)[C@H]1CC[C@H]2[C@@]12CO[C@@]3(O)[C@@H](O)[C@@H]1C(C)(C)CCC2=O [BS-OR-038]
